{
  "source": "patent US11931445B2",
  "about": "“Composition comprising baicalin” (L'OREAL, priority 2016, dated 2024)",
  "origin": "cited, not measured here",
  "key": {"[1]": {"settings": "pH more than 6.5"}},
  "data": [
    {"substance": "Baicalin", "values": [
      {"measurement": "chemical stability", "setting": "[1]", "result": "chemically unstable"},
      {"measurement": "solubility in an aqueous medium", "result": "very slightly soluble"}
    ]}
  ]
}
